Test results: PubChem BioAssay (NCI)
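Compound exposure: 48 hours, 5 concentrations, 96-well plates. The concentration for full growth arrest is given as TGI.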

Key:
Experiment in all cases: NCI-60 cell line screen, 48 h
HS 578T breast = test system: HS 578T breast
TK-10 renal = test system: TK-10 renal
UO-31 renal = test system: UO-31 renal
NCI/ADR-RES ovarian = test system: NCI/ADR-RES ovarian
RXF 393 renal = test system: RXF 393 renal
LOX IMVI melanoma = test system: LOX IMVI melanoma
T-47D breast = test system: T-47D breast
NCI-H23 lung = test system: NCI-H23 lung
SNB-19 CNS = test system: SNB-19 CNS
SN12C renal = test system: SN12C renal
NCI-H226 lung = test system: NCI-H226 lung
HCC-2998 colon = test system: HCC-2998 colon
U251 CNS = test system: U251 CNS
COLO 205 colon = test system: COLO 205 colon
OVCAR-4 ovarian = test system: OVCAR-4 ovarian
CAKI-1 renal = test system: CAKI-1 renal
SNB-75 CNS = test system: SNB-75 CNS
MCF7 breast = test system: MCF7 breast
MDA-MB-435 = test system: MDA-MB-435
BT-549 breast = test system: BT-549 breast
A498 renal = test system: A498 renal
SR leukemia = test system: SR leukemia
MDA-MB-231 breast = test system: MDA-MB-231 breast
HCT-116 colon = test system: HCT-116 colon
SF-295 CNS = test system: SF-295 CNS
NCI-H460 lung = test system: NCI-H460 lung
UACC-62 melanoma = test system: UACC-62 melanoma
NCI-H522 lung = test system: NCI-H522 lung
SF-539 CNS = test system: SF-539 CNS
PC-3 prostate = test system: PC-3 prostate
EKVX NSCLC = test system: EKVX NSCLC
SK-MEL-28 melanoma = test system: SK-MEL-28 melanoma
HCT-15 colon = test system: HCT-15 colon
CCRF-CEM leukemia = test system: CCRF-CEM leukemia
DU-145 prostate = test system: DU-145 prostate
SK-MEL-5 melanoma = test system: SK-MEL-5 melanoma
OVCAR-5 ovarian = test system: OVCAR-5 ovarian
SF-268 CNS = test system: SF-268 CNS
OVCAR-8 ovarian = test system: OVCAR-8 ovarian
ACHN renal = test system: ACHN renal
A549 NSCLC = test system: A549 NSCLC
MDA-N = test system: MDA-N
IGROV1 ovarian = test system: IGROV1 ovarian
MALME-3M melanoma = test system: MALME-3M melanoma
K-562 leukemia = test system: K-562 leukemia
M14 melanoma = test system: M14 melanoma
HT29 colon = test system: HT29 colon
SW-620 colon = test system: SW-620 colon
786-0 renal = test system: 786-0 renal
HOP-92 NSCLC = test system: HOP-92 NSCLC
SK-OV-3 ovarian = test system: SK-OV-3 ovarian
UACC-257 melanoma = test system: UACC-257 melanoma
SK-MEL-2 melanoma = test system: SK-MEL-2 melanoma
KM12 colon = test system: KM12 colon
HL-60(TB) leukemia = test system: HL-60(TB) leukemia
HOP-62 NSCLC = test system: HOP-62 NSCLC
OVCAR-3 ovarian = test system: OVCAR-3 ovarian
MOLT-4 leukemia = test system: MOLT-4 leukemia

Structure (SMILES): C/C(=N\N=C(\N)SB(F)F)c1ccc2ccccc2c1
- TGI (HS 578T breast): > 100 µM
- TGI (TK-10 renal): > 100 µM
- TGI (UO-31 renal): > 100 µM
- TGI (NCI/ADR-RES ovarian): > 100 µM
- TGI (RXF 393 renal): > 100 µM
- TGI (LOX IMVI melanoma): > 100 µM
- TGI (T-47D breast): > 100 µM
- TGI (NCI-H23 lung): > 100 µM
- TGI (SNB-19 CNS): > 100 µM
- TGI (SN12C renal): > 100 µM
- TGI (NCI-H226 lung): > 100 µM
- TGI (HCC-2998 colon): > 100 µM
- TGI (U251 CNS): > 100 µM
- TGI (COLO 205 colon): > 100 µM
- TGI (OVCAR-4 ovarian): > 100 µM
- TGI (CAKI-1 renal): > 100 µM
- TGI (SNB-75 CNS): > 100 µM
- TGI (MCF7 breast): > 100 µM
- TGI (MDA-MB-435): > 100 µM
- TGI (BT-549 breast): > 100 µM
- TGI (A498 renal): > 100 µM
- TGI (SR leukemia): > 100 µM
- TGI (MDA-MB-231 breast): > 100 µM
- TGI (HCT-116 colon): > 100 µM
- TGI (SF-295 CNS): > 100 µM
- TGI (NCI-H460 lung): > 100 µM
- TGI (UACC-62 melanoma): > 100 µM
- TGI (NCI-H522 lung): 72 µM
- TGI (SF-539 CNS): > 100 µM
- TGI (PC-3 prostate): > 100 µM
- TGI (EKVX NSCLC): > 100 µM
- TGI (SK-MEL-28 melanoma): > 100 µM
- TGI (HCT-15 colon): > 100 µM
- TGI (CCRF-CEM leukemia): 56.7 µM
- TGI (DU-145 prostate): > 100 µM
- TGI (SK-MEL-5 melanoma): > 100 µM
- TGI (OVCAR-5 ovarian): > 100 µM
- TGI (SF-268 CNS): > 100 µM
- TGI (OVCAR-8 ovarian): > 100 µM
- TGI (ACHN renal): > 100 µM
- TGI (A549 NSCLC): > 100 µM
- TGI (MDA-N): > 100 µM
- TGI (IGROV1 ovarian): > 100 µM
- TGI (MALME-3M melanoma): > 100 µM
- TGI (K-562 leukemia): > 100 µM
- TGI (M14 melanoma): > 100 µM
- TGI (HT29 colon): > 100 µM
- TGI (SW-620 colon): > 100 µM
- TGI (786-0 renal): > 100 µM
- TGI (HOP-92 NSCLC): > 100 µM
- TGI (SK-OV-3 ovarian): > 100 µM
- TGI (UACC-257 melanoma): > 100 µM
- TGI (SK-MEL-2 melanoma): > 100 µM
- TGI (KM12 colon): > 100 µM

Structure (SMILES): Cc1ccc(SC2C(=O)C3CC(OCc4ccccc4)C2(C)C3(C)C)cc1 (stereo not given)
- TGI (HS 578T breast): > 100 µM
- TGI (TK-10 renal): > 100 µM
- TGI (UO-31 renal): > 100 µM
- TGI (NCI/ADR-RES ovarian): > 100 µM
- TGI (RXF 393 renal): > 100 µM
- TGI (T-47D breast): > 100 µM
- TGI (NCI-H23 lung): > 100 µM
- TGI (HL-60(TB) leukemia): > 100 µM
- TGI (SNB-19 CNS): > 100 µM
- TGI (SN12C renal): > 100 µM
- TGI (NCI-H226 lung): > 100 µM
- TGI (HCC-2998 colon): > 100 µM
- TGI (U251 CNS): > 100 µM
- TGI (MCF7 breast): > 100 µM
- TGI (MDA-MB-435): > 100 µM
- TGI (BT-549 breast): > 100 µM
- TGI (A498 renal): > 100 µM
- TGI (SR leukemia): > 100 µM
- TGI (MDA-MB-231 breast): > 100 µM
- TGI (HCT-116 colon): > 100 µM
- TGI (SF-295 CNS): > 100 µM
- TGI (NCI-H460 lung): > 100 µM
- TGI (UACC-62 melanoma): > 100 µM
- TGI (SF-539 CNS): > 100 µM
- TGI (PC-3 prostate): > 100 µM
- TGI (EKVX NSCLC): > 100 µM
- TGI (SK-MEL-28 melanoma): > 100 µM
- TGI (HCT-15 colon): > 100 µM
- TGI (CCRF-CEM leukemia): > 100 µM
- TGI (DU-145 prostate): > 100 µM
- TGI (SK-MEL-5 melanoma): > 100 µM
- TGI (OVCAR-5 ovarian): > 100 µM
- TGI (SF-268 CNS): > 100 µM
- TGI (OVCAR-8 ovarian): > 100 µM
- TGI (ACHN renal): > 100 µM
- TGI (A549 NSCLC): > 100 µM
- TGI (MDA-N): > 100 µM
- TGI (IGROV1 ovarian): > 100 µM
- TGI (MALME-3M melanoma): > 100 µM
- TGI (K-562 leukemia): > 100 µM
- TGI (HOP-62 NSCLC): > 100 µM
- TGI (M14 melanoma): > 100 µM
- TGI (HT29 colon): > 100 µM
- TGI (SW-620 colon): > 100 µM
- TGI (786-0 renal): > 100 µM
- TGI (OVCAR-3 ovarian): > 100 µM
- TGI (HOP-92 NSCLC): > 100 µM
- TGI (MOLT-4 leukemia): > 100 µM
- TGI (SK-OV-3 ovarian): > 100 µM
- TGI (SK-MEL-2 melanoma): > 100 µM
- TGI (KM12 colon): > 100 µM
